Results: US9758527B2, “Cyclohexene derivative, preparation method therefor, and pharmaceutical composition for preventing or treating metabolic diseases, containing same as active ingredient” (HYUNDAI PHARM CO., LTD., priority 2014, dated 2017)
Where two headings read alike, the source gives them in different places.

Biological target: T1, G protein-coupled receptor 119 (GPR-119) (Mesocricetus auratus, UniProt A0A1U8CD06)
T1 construct: hamster-derived β-cells containing G protein-coupled receptor 119 (GPR-119), HIT-T15 cells; host or cells: HIT-T15 (hamster pancreatic β-cells)
T1 sequence (A0A1U8CD06 1-334): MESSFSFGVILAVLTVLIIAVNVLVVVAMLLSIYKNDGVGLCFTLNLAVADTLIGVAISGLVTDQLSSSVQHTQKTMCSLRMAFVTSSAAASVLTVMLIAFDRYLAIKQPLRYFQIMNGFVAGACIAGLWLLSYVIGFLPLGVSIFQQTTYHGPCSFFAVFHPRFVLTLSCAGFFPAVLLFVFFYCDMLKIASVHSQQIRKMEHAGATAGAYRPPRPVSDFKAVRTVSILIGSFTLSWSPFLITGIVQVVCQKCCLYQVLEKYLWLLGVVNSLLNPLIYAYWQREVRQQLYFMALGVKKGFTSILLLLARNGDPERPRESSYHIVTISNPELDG
Test: Evaluation of cAMP activity in HIT-T15 cells (HTRF cAMP dynamic kit)
Type: cell-based, hamster
Conditions: cAMP activation
How it was run: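 HIT-T15 cells, 60,000/well, treated next day with compound at six concentrations ([…]) for 1 h at 37° C. Lysate cAMP quantified by HTRF competitive immunoassay (D2-cAMP, cryptate anti-cAMP); activity taken as change in FRET signal relative to DMSO.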

[1] = 1 h at 37° C., six concentrations, read-out: EC50

EC50 [1] [µM] | EC50 (read-out: EC50 value) [µM] | SMILES
0.03 | ≤ 0.05 | CC(C)c1noc(N2CCC(COc3ccc(C4=CCC(C(=O)N[C@H](C)CO)CC4)cc3F)CC2)n1 (stereo partly drawn) [Example 84, 4-(3-fluoro-4-((1-(3-isopropyl-1,2,4-oxadiazol-5-yl)piperidin-4-yl)methoxy)phenyl)-N-((R)-1-hydroxypropan-2-yl)cyclohex-3-enecarboxamide]
0.13 | – | CC(C)(C)OC(=O)N1CCC(COc2ccc(C3=CCC(C(=O)NCC(F)(F)F)CC3)cn2)CC1 (stereo not shown) [Example 86, tert-butyl 4-((5-(4-(2,2,2-trifluoroethylcarbamoyl)cyclohex-1-enyl)pyridin-2-yloxy)methyl)piperidine-1-carboxylate]
0.021 | ≤ 0.05 | CC(C)c1noc(N2CCC(COc3ccc(C4=CCC(C(=O)N5CCN(C6CC6)CC5)CC4)cc3)CC2)n1 (stereo not shown) [Example 89, (4-cyclopropylpiperazin-1-yl)(4-(4-((1-(3-isopropyl-1,2,4-oxadiazol-5-yl)piperidin-4-yl)methoxy)phenyl)cyclohex-3-enyl)methanone]
0.05 | ≤ 0.05 | CC(C)c1noc(N2CCC(COc3ccc(C4=CCC(C(=O)NCC(F)F)CC4)cc3F)CC2)n1 (stereo not shown) [Example 93, N-(2,2-difluoroethyl)-4-(3-fluoro-4-((1-(3-isopropyl-1,2,4-oxadiazol-5-yl)piperidin-4-yl)methoxy)phenyl)cyclohex-3-enecarboxamide]
0.068 | – | CC(C)c1noc(N2CCC(COc3ccc(C4=CCC(C(=O)NCCF)CC4)cc3F)CC2)n1 (stereo not shown) [Example 94, 4-(3-fluoro-4-((1-(3-isopropyl-1,2,4-oxadiazol-5-yl)piperidin-4-yl)methoxy)phenyl)-N-(2-fluoroethyl)cyclohex-3-enecarboxamide]
0.016 | – | CC(C)c1noc(N2CCC(COc3ccc(C4=CCC(C(=O)N5CC[C@H](F)C5)CC4)cc3F)CC2)n1 (stereo partly drawn) [Example 95, (4-(3-fluoro-4-((1-(3-isopropyl-1,2,4-oxadiazol-5-yl)piperidin-4-yl)methoxy)phenyl)cyclohex-3-enyl)((S)-3-fluoropyrrolidin-1-yl)methanone]
0.027 | ≤ 0.05 | CC(C)c1noc(N2CCC(COc3ccc(C4=CCC(C(=O)N5CC[C@@H](F)C5)CC4)cc3F)CC2)n1 (stereo partly drawn) [Example 96, (4-(3-fluoro-4-((1-(3-isopropyl-1,2,4-oxadiazol-5-yl)piperidin-4-yl)methoxy)phenyl)cyclohex-3-enyl)((R)-3-fluoropyrrolidin-1-yl)methanone]
0.0061 | ≤ 0.05 | CC(C)c1noc(N2CCC(COc3ccc(C4=CCC(C(=O)N5CCSCC5)CC4)cc3F)CC2)n1 (stereo not shown) [Example 98, (4-(3-fluoro-4-((1-(3-isopropyl-1,2,4-oxadiazol-5-yl)piperidin-4-yl)methoxy)phenyl)cyclohex-3-enyl)(thiomorpholino)methanone]
0.095 | – | CC(C)c1noc(N2CCC(COc3ccc(C4=CCC(C(=O)N5CCOCC5)CC4)nc3)CC2)n1 (stereo not shown) [Example 100, (4-(5-((1-(3-isopropyl-1,2,4-oxadiazol-5-yl)piperidin-4-yl)methoxy)pyridin-2-yl)cyclohex-3-enyl)(morpholino)methanone]
0.11 | – | CC(C)c1noc(N2CCC(COc3ccc(C4=CCC(C(=O)N5CC[C@@H](F)C5)CC4)nc3)CC2)n1 (stereo partly drawn) [Example 101, ((R)-3-fluoropyrrolidin-1-yl)(4-(5-((1-(3-isopropyl-1,2,4-oxadiazol-5-yl)piperidin-4-yl)methoxy)pyridin-2-yl)cyclohex-3-enyl)methanone]
0.052 | – | CC(C)c1noc(N2CCC(COc3ccc(C4=CCC(C(=O)N5CC[C@H](F)C5)CC4)nc3)CC2)n1 (stereo partly drawn) [Example 102, ((S)-3-fluoropyrrolidin-1-yl)(4-(5-((1-(3-isopropyl-1,2,4-oxadiazol-5-yl)piperidin-4-yl)methoxy)pyridin-2-yl)cyclohex-3-enyl)methanone]
0.022 | ≤ 0.05 | CCc1cnc(N2CCC(COc3ccc(C4=CCC(C(=O)N5CCC[C@H]5C#N)CC4)cc3)CC2)nc1 (stereo partly drawn) [Example 106, (2S)-1-(4-(4-((1-(5-ethylpyrimidin-2-yl)piperidin-4-yl)methoxy)phenyl)cyclohex-3-enecarbonyl)pyrrolidine-2-carbonitrile]
0.055 | – | CC(C)c1noc(N2CCC(COc3ccc(C4=CCC(C(=O)N5CCC[C@H]5C(N)=O)CC4)cc3F)CC2)n1 (stereo partly drawn) [Example 108, (2S)-1-(4-(3-fluoro-4-((1-(3-isopropyl-1,2,4-oxadiazol-5-yl)piperidin-4-yl)methoxy)phenyl)cyclohex-3-enecarbonyl)pyrrolidine-2-carboxamide]

The remaining lines, values behind:

SMILES | EC50 [1] [µM] | EC50 (read-out: EC50 value) [µM]
CC(C)(C)OC(=O)N1CCC(COc2ccc(C3=CCC(C(=O)NCC(F)F)CC3)cc2F)CC1 (stereo not shown) [Example 85, tert-butyl 4-((4-(4-(2,2-difluoroethylcarbamoyl)cyclohex-1-enyl)-2-fluorophenoxy)methyl)piperidine-1-carboxylate] | 0.018 | ≤ 0.05
CC(C)(C)OC(=O)N1CCC(COc2ccc(C3=CCC(C(=O)NCC(F)F)CC3)cn2)CC1 (stereo not shown) [Example 87, tert-butyl 4-((5-(4-(2,2-difluoroethylcarbamoyl)cyclohex-1-enyl)pyridin-2-yloxy)methyl)piperidine-1-carboxylate] | 0.07 | –
CC(C)(C)OC(=O)N1CCC(COc2ccc(C3=CCC(C(=O)NCCF)CC3)cn2)CC1 (stereo not shown) [Example 88, tert-butyl 4-((5-(4-(2-fluoroethylcarbamoyl)cyclohex-1-enyl)pyridin-2-yloxy)methyl)piperidine-1-carboxylate] | 0.13 | –
CC(C)(C)OC(=O)N1CCC(COc2ccc(C3=CCC(C(=O)N4CC[C@@H](F)C4)CC3)cn2)CC1 (stereo partly drawn) [Example 90, tert-butyl 4-((5-(4-((R)-3-fluoropyrrolidine-1-carbonyl)cyclohex-1-enyl)pyridin-2-yloxy)methyl)piperidine-1-carboxylate] | 0.024 | ≤ 0.05
CC(C)(C)OC(=O)N1CCC(COc2ccc(C3=CCC(C(=O)N4CC[C@H](F)C4)CC3)cn2)CC1 (stereo partly drawn) [Example 91, tert-butyl 4-((5-(4-((S)-3-fluoropyrrolidine-1-carbonyl)cyclohex-1-enyl)pyridin-2-yloxy)methyl)piperidine-1-carboxylate] | 0.028 | ≤ 0.05
CC(C)c1noc(N2CCC(COc3ccc(C4=CCC(C(=O)NCC(F)(F)F)CC4)cc3F)CC2)n1 (stereo not shown) [Example 92, 4-(3-fluoro-4-((1-(3-isopropyl-1,2,4-oxadiazol-5-yl)piperidin-4-yl)methoxy)phenyl)-N-(2,2,2-trifluoroethyl)cyclohex-3-enecarboxamide] | 0.064 | –
CC(C)c1noc(N2CCC(COc3ccc(C4=CCC(C(=O)N5CCOCC5)CC4)cc3F)CC2)n1 (stereo not shown) [Example 97, (4-(3-fluoro-4-((1-(3-isopropyl-1,2,4-oxadiazol-5-yl)piperidin-4-yl)methoxy)phenyl)cyclohex-3-enyl)(morpholino)methanone] | 0.0084 | ≤ 0.05
CC(C)c1noc(N2CCC(COc3ccc(C4=CCC(C(=O)NCC(F)F)CC4)nc3)CC2)n1 (stereo not shown) [Example 99, N-(2,2-difluoroethyl)-4-(5-((1-(3-isopropyl-1,2,4-oxadiazol-5-yl)piperidin-4-yl)methoxy)pyridin-2-yl)cyclohex-3-enecarboxamide] | 0.16 | –
CCc1cnc(N2CCC(COc3ccc(C4=CCC(C(=O)NCC(F)(F)F)CC4)cc3)CC2)nc1 (stereo not shown) [Example 103, 4-(4-((1-(5-ethylpyrimidin-2-yl)piperidin-4-yl)methoxy)phenyl)-N-(2,2,2-trifluoroethyl)cyclohex-3-enecarboxamide] | 0.075 | –
CCc1cnc(N2CCC(COc3ccc(C4=CCC(C(=O)NCCF)CC4)cc3)CC2)nc1 (stereo not shown) [Example 104, 4-(4-((1-(5-ethylpyrimidin-2-yl)piperidin-4-yl)methoxy)phenyl)-N-(2-fluoroethyl)cyclohex-3-enecarboxamide] | 0.07 | –
CCc1cnc(N2CCC(COc3ccc(C4=CCC(C(=O)N5CCC[C@H]5C(N)=O)CC4)cc3)CC2)nc1 (stereo partly drawn) [Example 105, (2S)-1-(4-(4-((1-(5-ethylpyrimidin-2-yl)piperidin-4-yl)methoxy)phenyl)cyclohex-3-enecarbonyl)pyrrolidine-2-carboxamide] | 0.043 | ≤ 0.05
CC(C)(C)OC(=O)N1CCC(COc2ccc(C3=CCC(C(=O)N4CCC[C@H]4C(N)=O)CC3)cc2F)CC1 (stereo partly drawn) [Example 107, tert-butyl 4-((4-(4-((S)-2-carbamoylpyrrolidine-1-carbonyl)cyclohex-1-enyl)-2-fluorophenoxy)methyl)piperidine-1-carboxylate] | 0.035 | ≤ 0.05
COC(=O)CNC(=O)C1CC=C(c2ccc(OCC3CCN(c4nc(C(C)C)no4)CC3)c(F)c2)CC1 (stereo not shown) [Example 109] | 0.19 | –
CCOC(=O)CCNC(=O)C1CC=C(c2ccc(OCC3CCN(c4nc(C(C)C)no4)CC3)c(F)c2)CC1 (stereo not shown) [Example 110, ethyl 3-(4-(3-fluoro-4-((1-(3-isopropyl-1,2,4-oxadiazol-5-yl)piperidin-4-yl)methoxy)phenyl)cyclohex-3-enecarboxamido)propanoate] | 0.11 | –
CC(C)c1noc(N2CCC(COc3ccc(C4=CCC(C(=O)NCCC(=O)O)CC4)cc3F)CC2)n1 (stereo not shown) [Example 111, 3-(4-(3-fluoro-4-((1-(3-isopropyl-1,2,4-oxadiazol-5-yl)piperidin-4-yl)methoxy)phenyl)cyclohex-3-enecarboxamido)propanoic acid] | 1.5 | –
